Data published in patent US6787132B1, “Combined chemo-immunotherapy with liposomal drugs and cytokines” (Yissum Research Development Company of the Hebrew …, priority 1997, dated 2004).

Assays:
Format in all cases: in vivo, BALB/c mice
[1] = system: M109 tumor cells (lung adenocarcinoma); assay: Metastatic lung adenocarcinoma model: survival of mice injected intravenously with M109 tumor cells, IL-2 in PEGylated SUV; conditions: 5×10^5 M109 cells i.v. day 0, ADR or DOXIL 8 mg/kg i.v. day 7, SSL-IL-2 50,000 CU/mouse i.v. days 11, 14, 17
Method: B2. Metastatic Lung Adenocarcinoma Model: IL-2 in MLV (Formulation B) and PEG-Derivatized SUV (SSL). In this experiment, BALB/c mice were injected intravenously with 5×10^5 M109 tumor cells (day 0). Free adriamycin or DOXIL ®, respectively, were administered intravenously on day 7 (8 mg/kg), followed […] by intravenous cytokine treatment. Liposomal IL-2 (Formulation A; PEGylated SUV containing IL-2) was given once daily (50,000 CU/mouse) on days 11, 14 and 17. Control groups received no treatment or received the IL-2 treatment alone.
(§1) Each group, consisting of 8-9 mice, was inspected for survival up to 100 days after tumor inoculation.

M109 tumor cells = assay: Second, more extensive M109 study: free or liposomal adriamycin with free IL-2, SSL-IL-2 or MLV-IL-2; conditions: 5×10^5 M109 cells i.p.; ADR or DOXIL 8 mg/kg i.p. day 7; IL-2 50,000 CU/mouse i.v. days 10, 13, 16; observed up to 120 days
Method: In a second, more extensive study, nine groups of BALB/c mice were injected intraperitoneally with 5×10^5 M109 tumor cells. Free adriamycin or DOXIL® (8 mg/kg) were administered intraperitoneally 7 days later, followed 3 days later by intravenous cytokine treatment. The cytokine, given once daily (50,000 CU/mouse) on days 10, 13 and 16, consisted of free IL-2, IL-2 in Formulation A (Stealth® PEGylated SUV), or IL-2 in Formulation B (9:1 molar DMPC/DMPG MLV).
Each group, consisting of 8 mice, and an untreated control group of 11 mice, were inspected for survival up to 120 days after tumor inoculation.

[2] = system: C26 colon carcinoma cells; assay: Subcutaneous colon carcinoma model (footpad), IL-2 in MLV; conditions: 10^5 C26 cells in footpad, 8 mg/kg free or liposomal adriamycin i.v. day 7, IL-2 i.p.
Method: B3. Subcutaneous colon carcinoma model: IL-2 in MLV. In this test, 7 groups of BALB/c mice were injected in the footpad with 10^5 C26 colon carcinoma cells.

[3] = system: M109 tumor cells (lung adenocarcinoma); assay: Lung adenocarcinoma model: survival of mice injected intraperitoneally with M109 tumor cells, IL-2 in MLV; conditions: 5×10^5 M109 cells i.p. day 0, ADR or DOXIL 8 mg/kg i.v. day 7, MLV-IL-2 50,000 CU/mouse i.p. days 10, 13, 16
Method: B1. Lung Adenocarcinoma Model: IL-2 in MLV. Six groups of BALB/c mice were injected intraperitoneally with 5×10^5 M109 tumor cells (day 0). Free adriamycin or DOXIL®, respectively, were administered intravenously on day 7 at a dose of 8 mg/kg, and intraperitoneal cytokine treatment was initiated 3 days later. Liposomal IL-2 (formulation B; MLV DMPC/DMPG (9:1 mole ratio) liposomes containing IL-2) was given once daily (50,000 CU/mouse) on days 10, 13 and 16. Control groups received no treatment or received the IL-2 treatment alone.
as §1

COc1cccc2c1C(=O)c1c(O)c3c(c(O)c1C2=O)C[C@@](O)(C(=O)CO)C[C@@H]3O[C@H]1C[C@H](N)[C@H](O)[C@H](C)O1 [ADR, adriamycin (doxorubicin)]
MEDIAN SURVIVAL ([1]; observed up to 100 days): 56 days
NUMBER OF SURVIVING MICE/TOTAL ([1]; survival up to 100 days): 2/8
MEDIAN SURVIVAL (M109 tumor cells): 100 days
NUMBER OF TUMOR FREE MICE/TOTAL (M109 tumor cells): 4/8
NUMBER OF TUMOR FREE MICE, DAY 30 ([2]; day 30): 0/7
NUMBER OF TUMOR FREE MICE, DAY 65 ([2]; day 65): 0/7
MEDIAN SURVIVAL ([3]; observed up to 100 days): 42 days
NUMBER OF SURVIVING MICE/TOTAL ([3]; survival up to 100 days): 0/8
